Legend:
[1] = test system: phosphorylated Bcr-Abl; test: Degradation of Bcr-Abl in KU812 cells (Western blot); type: cell-based; details: 18 hours
Protocol: KU812 chronic myeloid leukemia cells (ATCC) (2×10^6 cells), which harbor the Philadelphia chromosome that produces Bcr-Abl tyrosine kinase, were treated (0.1 μM and 1.0 μM) with either Compound 226, 17-AAG or 17-DMAG. After 18 hours, the cells were lysed with 1× lysis buffer, and a western blot was perform using anti-BCR-ABL antibody to detect phosphorylated Bcr-Abl.

[2] = test system: NPM-ALK; test: Degradation of NPM-ALK in Karpas-299 cells (Western blot); type: cell-based, human; details: 18 hours
Protocol: Anaplastic large-cell lymphoma cells, Karpas-299 cells (the German resource center for biological material) (2×10^6 cells), which harbor the fusion protein NPM-ALK, were treated (0.05 μM, 0.1 μM and 0.5 μM) with either Compound 226 or 17-AAG. After 18 hours and the cells were lysed with 1× lysis buffer and a western blot was perform using an anti-ALK antibody to detect and phosphorylated NPM-ALK and total NPM-ALK.

[3] = test system: A375 cells (B-raf V600E); test: Cell survival in A375 melanoma cells (Cell Counting Kit-8); type: cell-based, human; details: Homo sapiens, A-375, 72 hours
Protocol: Human melanoma cell line, A375 (2×10^6 cells), which contains the V600E mutation in the B-raf protein that confers constitutive […] kinase activity, was obtained from American Type Culture Collection. A375 cells (20,000 cells/well) were cultured in 96-well plates and maintained at 37° C. for several hours. The cells were incubated at 37° C. for 72 hours with various concentrations of compound 226, 17AAG or 17DMAG. 17AAG and 17DMAG are Hsp90 inhibitors that are currently in clinical trials and are used here as positive controls for Hsp90 inhibition. Cell survival was measured with Cell Counting Kit-8 (Dojindo Laboratories, Cat # CK04).

[4] = test system: K562 cells (Bcr-Abl); test: Cell survival in K562 cells (Cell Counting Kit-8); type: cell-based, human; details: Homo sapiens, 72 hours
Protocol: Growth of this tumor cell line is dependent upon the expression of the Bcr-Abl fusion protein (C. Gambacarti-Passerini et al., Blood Cells Mol. Dis. 23:380-394, 1997). K562 cells (20,000 cells/well) were cultured in 96-well plates and maintained at 37° C. for several hours. […] 17AAG, DMAG, and Radicical are Hsp90 inhibitors that are currently in clinical trials and are used here as positive controls for Hsp90 inhibition. […] Cell survival was measured with Cell Counting Kit-8 (Dojindo Laboratories, Cat # CK04).

[5] = test system: human tumor cell line Kasumi-1; test: Kasumi-1 (c-Kit N822K) SCID mouse xenograft model; type: in vivo, human (xenograft in SCID mouse); details: for % T/C value: SCID mice
Source text: The human acute myelogenous leukemia cell line, Kasumi-1 (ATCC #CRL-2724), was obtained from the American Type Culture Collection (ATCC; Manassas, Va., USA). Growth of this tumor cell line is dependent upon the expression of an activated form of the c-Kit tyrosine kinase receptor carrying a N822K mutation (A. Beghini, et al., Exp. Hematol. 33:682-688, 2005). […] FBS was obtained from ATCC and all other reagents were obtained from Invitrogen Corp. (Carlsbad, Calif., USA). Cells that had been cryopreserved in liquid nitrogen were rapidly thawed at 37° C. and transferred to a tissue culture flask containing growth media and then incubated at 37° C. in a 5% CO2 incubator. To expand the cell line, cultures were passaged 1:2 to a density of 5×10 (6) cells/ml every three days by adding an equal volume of fresh growth media. When the flasks reached a density of approximately 10×10 (6) cells/ml, the above passaging process was repeated until sufficient cells had been obtained for implantation into mice.
Seven to eight week old, female CB17/Icr-Prkdc^scid/Crl (SCID) mice were obtained from Charles River Laboratories (Wilmington, Mass., USA). […]
Tumors were then permitted to develop in vivo until the majority reached 100-200 mm^3 in tumor volume, which typically required 4-5 weeks following implantation. […] Tumor volumes (V) were calculated by caliper measurement of the width (W), length (L) and thickness (T) of tumors using the following formula: V=0.5236×(L×W×T). Animals were randomized into treatment groups so that the median tumor volumes of each group were similar at the start of dosing. % T/C values, as a measure of efficacy, were determined as follows: • (vi) If ΔT>0: % T/C=(ΔT/ΔC)×100 • (vii) If ΔT<0: % T/C=(ΔT/T0)×100 • (viii) ΔT=Change in median tumor volume between start of dosing and the end of study. • (ix) ΔC=Change in median tumor volume between start of dosing and the end of study. • (x) T0=Median tumor volume at start of dosing. […]

Compound: CC(C)c1cc(-c2nnc(O)n2-c2ccc3c(ccn3C)c2)c(O)cc1O [Compound 226, 3-(2,4-di-hydroxy-5-isopropyl-phenyl)-4-(1-methyl-indol-5-yl)-5-hydroxy-[1,2,4] triazole]
- degradation of phosphorylated Bcr-Abl ([1]; 0.1 μM): complete degradation
- degradation of phosphorylated Bcr-Abl ([1]; 1.0 μM): complete degradation
- degradation of phosphorylated and total NPM-ALK ([2]; 0.05 μM and 0.1 μM): partial degradation
- degradation of phosphorylated NPM-ALK ([2]; 0.5 μM): total degradation
- IC50 [3]: 4 nM
- IC50 [4]: 14 nM
- average bodyweight gain relative to the start of the study ([5]; 25 mg/kg i.v. 5 times per week, day 50): +0.7% (+/−2.0 SEM)
- % T/C value ([5]; 25 mg/kg i.v. 5 times per week, 14 doses, day 50): −15.3%
- % T/C value ([5]; single dose of 25 mg/kg on day 30, observed day 33 (3 days after the first dose)): −4.1%
